Assay results as given in ChEMBL document CHEMBL1147101, “Development and persistence of antimicrobial resistance in Pseudomonas aeruginosa: a longitudinal observation in mechanically ventilated patients” (Antimicrob Agents Chemother, 2007).
Calls of active or inactive are those of the source. The calls are words filed in the database; no cut-off is given here.

Experiments:
Assay type in all cases: functional, organism-based
Conditions in all cases: Trachea
Pseudomonas aeruginosa [1] = experiment: Antimicrobial activity against Pseudomonas aeruginosa 1A9 tracheal isolates from mechanically ventilated tuberculosis patient
Pseudomonas aeruginosa [2] = experiment: Antimicrobial activity against Pseudomonas aeruginosa 13D11 tracheal isolates from mechanically ventilated chronic respiratory insufficiency patient
Pseudomonas aeruginosa [3] = experiment: Antimicrobial activity against Pseudomonas aeruginosa 15G10 tracheal isolates from mechanically ventilated chronic respiratory insufficiency patient
Pseudomonas aeruginosa [4] = experiment: Antimicrobial activity against Pseudomonas aeruginosa 2A1 tracheal isolates from mechanically ventilated tuberculosis patient
Pseudomonas aeruginosa [5] = experiment: Antimicrobial activity against Pseudomonas aeruginosa 2C1 tracheal isolates from mechanically ventilated tuberculosis patient
Pseudomonas aeruginosa [6] = experiment: Antimicrobial activity against Pseudomonas aeruginosa 2C2 tracheal isolates from mechanically ventilated tuberculosis patient
Pseudomonas aeruginosa [7] = experiment: Antimicrobial activity against Pseudomonas aeruginosa 2B5 tracheal isolates from mechanically ventilated tuberculosis patient
Pseudomonas aeruginosa [8] = experiment: Antimicrobial activity against Pseudomonas aeruginosa 65.68-2 tracheal isolates from mechanically ventilated tuberculosis patient
Pseudomonas aeruginosa [9] = experiment: Antimicrobial activity against Pseudomonas aeruginosa 2A5 tracheal isolates from mechanically ventilated chronic respiratory insufficiency patient
Pseudomonas aeruginosa [10] = experiment: Antimicrobial activity against Pseudomonas aeruginosa 13D3 tracheal isolates from mechanically ventilated chronic respiratory insufficiency patient
Pseudomonas aeruginosa [11] = experiment: Antimicrobial activity against Pseudomonas aeruginosa 13D6 tracheal isolates from mechanically ventilated chronic respiratory insufficiency patient
Pseudomonas aeruginosa [12] = experiment: Antimicrobial activity against Pseudomonas aeruginosa 16D2 tracheal isolates from mechanically ventilated chronic respiratory insufficiency patient
Pseudomonas aeruginosa [13] = experiment: Antimicrobial activity against Pseudomonas aeruginosa 19B1 tracheal isolates from mechanically ventilated chronic respiratory insufficiency patient
Pseudomonas aeruginosa [14] = experiment: Antimicrobial activity against Pseudomonas aeruginosa 19C2 tracheal isolates from mechanically ventilated chronic respiratory insufficiency patient
Pseudomonas aeruginosa [15] = experiment: Antimicrobial activity against Pseudomonas aeruginosa 19C12 tracheal isolates from mechanically ventilated chronic respiratory insufficiency patient
Pseudomonas aeruginosa [16] = experiment: Antimicrobial activity against Pseudomonas aeruginosa 19D10 tracheal isolates from mechanically ventilated chronic respiratory insufficiency patient
Pseudomonas aeruginosa [17] = experiment: Antimicrobial activity against Pseudomonas aeruginosa 9A1 tracheal isolates from mechanically ventilated chronic respiratory insufficiency patient
Pseudomonas aeruginosa [18] = experiment: Antimicrobial activity against Pseudomonas aeruginosa 9A3 tracheal isolates from mechanically ventilated chronic respiratory insufficiency patient
Pseudomonas aeruginosa [19] = experiment: Antimicrobial activity against Pseudomonas aeruginosa 10A6 tracheal isolates from mechanically ventilated chronic respiratory insufficiency patient
Pseudomonas aeruginosa [20] = experiment: Antimicrobial activity against Pseudomonas aeruginosa 19E1 tracheal isolates from mechanically ventilated chronic respiratory insufficiency patient
Pseudomonas aeruginosa [21] = experiment: Antimicrobial activity against Pseudomonas aeruginosa 19E12 tracheal isolates from mechanically ventilated chronic respiratory insufficiency patient
Pseudomonas aeruginosa [22] = experiment: Antimicrobial activity against Pseudomonas aeruginosa 19F1 tracheal isolates from mechanically ventilated chronic respiratory insufficiency patient
Pseudomonas aeruginosa [23] = experiment: Antimicrobial activity against Pseudomonas aeruginosa 19F2 tracheal isolates from mechanically ventilated chronic respiratory insufficiency patient
Pseudomonas aeruginosa [24] = experiment: Antimicrobial activity against Pseudomonas aeruginosa 22D2 tracheal isolates from mechanically ventilated chronic respiratory insufficiency patient
Pseudomonas aeruginosa [25] = experiment: Antimicrobial activity against Pseudomonas aeruginosa 22D6 tracheal isolates from mechanically ventilated chronic respiratory insufficiency patient
Pseudomonas aeruginosa [26] = experiment: Antimicrobial activity against Pseudomonas aeruginosa 22E1 tracheal isolates from mechanically ventilated chronic respiratory insufficiency patient
Pseudomonas aeruginosa [27] = experiment: Antimicrobial activity against Pseudomonas aeruginosa 22C5 tracheal isolates from mechanically ventilated chronic respiratory insufficiency patient
Pseudomonas aeruginosa [28] = experiment: Antimicrobial activity against Pseudomonas aeruginosa 24D5 tracheal isolates from mechanically ventilated chronic respiratory insufficiency patient
Pseudomonas aeruginosa [29] = experiment: Antimicrobial activity against Pseudomonas aeruginosa 24E1 tracheal isolates from mechanically ventilated chronic respiratory insufficiency patient
Pseudomonas aeruginosa [30] = experiment: Antimicrobial activity against Pseudomonas aeruginosa 24E2 tracheal isolates from mechanically ventilated chronic respiratory insufficiency patient
Pseudomonas aeruginosa [31] = experiment: Antimicrobial activity against Pseudomonas aeruginosa 24E5 tracheal isolates from mechanically ventilated chronic respiratory insufficiency patient
Pseudomonas aeruginosa [32] = experiment: Antimicrobial activity against Pseudomonas aeruginosa 24E6 tracheal isolates from mechanically ventilated chronic respiratory insufficiency patient
Pseudomonas aeruginosa [33] = experiment: Antimicrobial activity against Pseudomonas aeruginosa 23C5 tracheal isolates from mechanically ventilated chronic respiratory insufficiency patient
Pseudomonas aeruginosa [34] = experiment: Antimicrobial activity against Pseudomonas aeruginosa 24F4 tracheal isolates from mechanically ventilated chronic respiratory insufficiency patient
Pseudomonas aeruginosa [35] = experiment: Antimicrobial activity against Pseudomonas aeruginosa 65.18-1 tracheal isolates from mechanically ventilated tuberculosis patient
Pseudomonas aeruginosa [36] = experiment: Antimicrobial activity against Pseudomonas aeruginosa 65.18-2 tracheal isolates from mechanically ventilated tuberculosis patient
Pseudomonas aeruginosa [37] = experiment: Antimicrobial activity against Pseudomonas aeruginosa 65.18-3 tracheal isolates from mechanically ventilated tuberculosis patient
Pseudomonas aeruginosa [38] = experiment: Antimicrobial activity against Pseudomonas aeruginosa IC7 tracheal isolates from mechanically ventilated tuberculosis patient
Pseudomonas aeruginosa [39] = experiment: Antimicrobial activity against Pseudomonas aeruginosa 65.33-3 tracheal isolates from mechanically ventilated tuberculosis patient
Pseudomonas aeruginosa [40] = experiment: Antimicrobial activity against Pseudomonas aeruginosa 65.36-4 tracheal isolates from mechanically ventilated tuberculosis patient
Pseudomonas aeruginosa [41] = experiment: Antimicrobial activity against Pseudomonas aeruginosa 65.38-1 tracheal isolates from mechanically ventilated tuberculosis patient
Pseudomonas aeruginosa [42] = experiment: Antimicrobial activity against Pseudomonas aeruginosa 65.38-2 tracheal isolates from mechanically ventilated tuberculosis patient
Pseudomonas aeruginosa [43] = experiment: Antimicrobial activity against Pseudomonas aeruginosa 65.38-4 tracheal isolates from mechanically ventilated tuberculosis patient
Pseudomonas aeruginosa [44] = experiment: Antimicrobial activity against Pseudomonas aeruginosa 1C9 tracheal isolates from mechanically ventilated tuberculosis patient
Pseudomonas aeruginosa [45] = experiment: Antimicrobial activity against Pseudomonas aeruginosa 19C5 tracheal isolates from mechanically ventilated chronic respiratory insufficiency patient
Pseudomonas aeruginosa [46] = experiment: Antimicrobial activity against Pseudomonas aeruginosa 29G8 tracheal isolates from mechanically ventilated chronic respiratory insufficiency patient
Pseudomonas aeruginosa [47] = experiment: Antimicrobial activity against Pseudomonas aeruginosa 29H1 tracheal isolates from mechanically ventilated chronic respiratory insufficiency patient
Pseudomonas aeruginosa [48] = experiment: Antimicrobial activity against Pseudomonas aeruginosa 24D1 tracheal isolates from mechanically ventilated chronic respiratory insufficiency patient
Pseudomonas aeruginosa [49] = experiment: Antimicrobial activity against Pseudomonas aeruginosa IA5 tracheal isolates from mechanically ventilated tuberculosis patient

C[C@@H](O)[C@H]1C(=O)N2C(C(=O)O)=C(SCCNC=N)C[C@H]12
Activity (Pseudomonas aeruginosa [1]): inactive
Activity (Pseudomonas aeruginosa [2]): Active
Activity (Pseudomonas aeruginosa [3]): Active
Activity (Pseudomonas aeruginosa [4]): inactive
Activity (Pseudomonas aeruginosa [5]): inactive
Activity (Pseudomonas aeruginosa [6]): inactive
Activity (Pseudomonas aeruginosa [7]): inactive
Activity (Pseudomonas aeruginosa [8]): inactive
Activity (Pseudomonas aeruginosa [9]): Active
Activity (Pseudomonas aeruginosa [10]): Active
Activity (Pseudomonas aeruginosa [11]): Active
Activity (Pseudomonas aeruginosa [12]): Active
Activity (Pseudomonas aeruginosa [13]): Active
Activity (Pseudomonas aeruginosa [14]): Active
Activity (Pseudomonas aeruginosa [15]): Active
Activity (Pseudomonas aeruginosa [16]): Active
Activity (Pseudomonas aeruginosa [17]): Active
Activity (Pseudomonas aeruginosa [18]): Active
Activity (Pseudomonas aeruginosa [19]): Active
Activity (Pseudomonas aeruginosa [20]): Active
Activity (Pseudomonas aeruginosa [21]): Active
Antimicrobial activity (Pseudomonas aeruginosa [22]): Active
Activity (Pseudomonas aeruginosa [23]): Active
Activity (Pseudomonas aeruginosa [24]): Active
Activity (Pseudomonas aeruginosa [25]): Active
Activity (Pseudomonas aeruginosa [26]): Active
Activity (Pseudomonas aeruginosa [27]): Active
Activity (Pseudomonas aeruginosa [28]): Active
Activity (Pseudomonas aeruginosa [29]): Active
Activity (Pseudomonas aeruginosa [30]): Active
Activity (Pseudomonas aeruginosa [31]): Active
Activity (Pseudomonas aeruginosa [32]): Active
Activity (Pseudomonas aeruginosa [33]): Active
Activity (Pseudomonas aeruginosa [34]): Active
Activity (Pseudomonas aeruginosa [35]): Active
Activity (Pseudomonas aeruginosa [36]): Active
Activity (Pseudomonas aeruginosa [37]): inactive
Activity (Pseudomonas aeruginosa [38]): inactive
Activity (Pseudomonas aeruginosa [39]): inactive
Activity (Pseudomonas aeruginosa [40]): inactive
Activity (Pseudomonas aeruginosa [41]): inactive
Activity (Pseudomonas aeruginosa [42]): inactive

CCn1cc(C(=O)O)c(=O)c2cc(F)c(N3CCNCC3)cc21
Activity (Pseudomonas aeruginosa [43]): Active
Activity (Pseudomonas aeruginosa [1]): Active
Activity (Pseudomonas aeruginosa [44]): Active
Activity (Pseudomonas aeruginosa [2]): Active
Activity (Pseudomonas aeruginosa [4]): Active
Activity (Pseudomonas aeruginosa [5]): Active
Activity (Pseudomonas aeruginosa [6]): Active
Activity (Pseudomonas aeruginosa [7]): Active
Activity (Pseudomonas aeruginosa [8]): Active
Activity (Pseudomonas aeruginosa [9]): Active
Activity (Pseudomonas aeruginosa [45]): Active
Activity (Pseudomonas aeruginosa [17]): Active
Activity (Pseudomonas aeruginosa [18]): Active
Activity (Pseudomonas aeruginosa [19]): Active
Activity (Pseudomonas aeruginosa [46]): Active
Activity (Pseudomonas aeruginosa [47]): inactive
Activity (Pseudomonas aeruginosa [24]): Active
Activity (Pseudomonas aeruginosa [25]): Active
Activity (Pseudomonas aeruginosa [26]): Active
Activity (Pseudomonas aeruginosa [27]): Active
Activity (Pseudomonas aeruginosa [48]): Active
Activity (Pseudomonas aeruginosa [28]): inactive
Activity (Pseudomonas aeruginosa [31]): Active
Activity (Pseudomonas aeruginosa [34]): Active
Activity (Pseudomonas aeruginosa [35]): Active
Activity (Pseudomonas aeruginosa [36]): Active
Activity (Pseudomonas aeruginosa [37]): Active
Activity (Pseudomonas aeruginosa [49]): Active
Activity (Pseudomonas aeruginosa [38]): Active
Activity (Pseudomonas aeruginosa [39]): Active
Activity (Pseudomonas aeruginosa [40]): Active
Activity (Pseudomonas aeruginosa [41]): Active
Activity (Pseudomonas aeruginosa [42]): Active

CO/N=C(\C(=O)N[C@@H]1C(=O)N2C(C(=O)[O-])=C(C[N+]3(C)CCCC3)CS[C@H]12)c1csc(N)n1
Activity (Pseudomonas aeruginosa [43]): Active
Activity (Pseudomonas aeruginosa [1]): Active
Activity (Pseudomonas aeruginosa [44]): Active
Activity (Pseudomonas aeruginosa [2]): Active
Activity (Pseudomonas aeruginosa [3]): Active
Activity (Pseudomonas aeruginosa [4]): Active
Activity (Pseudomonas aeruginosa [5]): inactive
Activity (Pseudomonas aeruginosa [6]): Active
Activity (Pseudomonas aeruginosa [7]): Active
Activity (Pseudomonas aeruginosa [8]): Active
Activity (Pseudomonas aeruginosa [9]): Active
Activity (Pseudomonas aeruginosa [10]): Active
Activity (Pseudomonas aeruginosa [11]): Active
Activity (Pseudomonas aeruginosa [12]): Active
Activity (Pseudomonas aeruginosa [13]): Active
Activity (Pseudomonas aeruginosa [45]): Active
Activity (Pseudomonas aeruginosa [15]): Active
Activity (Pseudomonas aeruginosa [16]): Active
Activity (Pseudomonas aeruginosa [17]): Active
Activity (Pseudomonas aeruginosa [18]): Active
Activity (Pseudomonas aeruginosa [19]): Active
Activity (Pseudomonas aeruginosa [46]): Active
Activity (Pseudomonas aeruginosa [47]): inactive
Activity (Pseudomonas aeruginosa [20]): Active
Activity (Pseudomonas aeruginosa [21]): Active
Antimicrobial activity (Pseudomonas aeruginosa [22]): Active
Activity (Pseudomonas aeruginosa [23]): Active
Activity (Pseudomonas aeruginosa [24]): Active
Activity (Pseudomonas aeruginosa [25]): Active
Activity (Pseudomonas aeruginosa [26]): Active
Activity (Pseudomonas aeruginosa [27]): Active
Activity (Pseudomonas aeruginosa [48]): Active
Activity (Pseudomonas aeruginosa [29]): Active
Activity (Pseudomonas aeruginosa [30]): Active
Activity (Pseudomonas aeruginosa [31]): Active
Activity (Pseudomonas aeruginosa [32]): Active
Activity (Pseudomonas aeruginosa [33]): Active
Activity (Pseudomonas aeruginosa [35]): Active
Activity (Pseudomonas aeruginosa [36]): Active
Activity (Pseudomonas aeruginosa [37]): Active
Activity (Pseudomonas aeruginosa [49]): Active
Activity (Pseudomonas aeruginosa [38]): Active
Activity (Pseudomonas aeruginosa [40]): inactive
Activity (Pseudomonas aeruginosa [41]): inactive

O=C(O)c1cn(C2CC2)c2cc(N3CCNCC3)c(F)cc2c1=O
Activity (Pseudomonas aeruginosa [43]): Active
Activity (Pseudomonas aeruginosa [1]): Active
Activity (Pseudomonas aeruginosa [44]): Active
Activity (Pseudomonas aeruginosa [2]): Active
Activity (Pseudomonas aeruginosa [4]): Active
Activity (Pseudomonas aeruginosa [5]): Active
Activity (Pseudomonas aeruginosa [6]): Active
Activity (Pseudomonas aeruginosa [7]): Active
Activity (Pseudomonas aeruginosa [8]): Active
Activity (Pseudomonas aeruginosa [9]): Active
Activity (Pseudomonas aeruginosa [45]): Active
Activity (Pseudomonas aeruginosa [17]): Active
Activity (Pseudomonas aeruginosa [18]): Active
Activity (Pseudomonas aeruginosa [19]): Active
Activity (Pseudomonas aeruginosa [46]): Active
Activity (Pseudomonas aeruginosa [47]): inactive
Activity (Pseudomonas aeruginosa [24]): Active
Activity (Pseudomonas aeruginosa [25]): Active
Activity (Pseudomonas aeruginosa [26]): Active
Activity (Pseudomonas aeruginosa [27]): Active
Activity (Pseudomonas aeruginosa [48]): Active
Activity (Pseudomonas aeruginosa [31]): Active
Activity (Pseudomonas aeruginosa [34]): Active
Activity (Pseudomonas aeruginosa [35]): Active
Activity (Pseudomonas aeruginosa [36]): Active
Activity (Pseudomonas aeruginosa [37]): Active
Activity (Pseudomonas aeruginosa [49]): Active
Activity (Pseudomonas aeruginosa [38]): Active
Activity (Pseudomonas aeruginosa [39]): Active
Activity (Pseudomonas aeruginosa [40]): Active
Activity (Pseudomonas aeruginosa [41]): Active
Activity (Pseudomonas aeruginosa [42]): Active
